Entries after “also recorded” stand apart in the source; their conditions may differ.

One assay has as its system Lin28. Briefly: Lin28 expression in mouse peritoneal macrophages. The note with it: 10 μM, 48 h. It is filed as cell-based. The protocol: For cultured mouse peritoneal macrophages, cells were primed with 30 ng/ml of TGF-β1 (R&D Systems, 7666-MB0-005) for 48 h (to increase TET3 expression) before Bobcat339 treatment. Bobcat339 (or DMSO) was added at a final concentration of 10 μM, followed by RNA and protein extraction at time points indicated in the figure legends.
Total RNAs were extracted from cells using PureLink RNA Mini Kit. 0.5-1 μg total RNA was reverse transcribed to cDNA in a reaction volume of 20 μL using PrimeScript RT Reagent Kit. Real-time quantitative PCR was performed in a 15 μL reaction volume containing 0.5-1 μL of cDNA using SsoAdvanced Universal SYBR Green Supermix in a Bio-Rad iCycler. Gene expression levels were normalized against RPLP0.

For another assay, the system named is OC-bearing mice. Description: Ovarian cancer (ID8-luc2)-induced anorexia model. It is filed as in vivo. The conditions noted are these: 0.05 mg/mouse once a week i.p. From the text: Furthermore, the present studies use the luciferase-expressing mouse ovarian surface epithelial cancer cell line ID8-luc2 (Liao J B et al., 2015, J Immunother Cancer, 3:16) that was originally derived from C57BL/6 mice (Roby K F et al., 2000, Carcinogenesis, 21:585-591). ID8-luc2 allow in vivo imaging of intraperitoneal tumors to monitor tumor growth (Udumula M P et al., 2021, Mol Metab., 53:101272; Liao J B et al., 2015, J Immunother Cancer, 3:16). Agrp-IRES-Cre::LSL-Cas9-GFP mice (C57BL/6 background) that express GFP specifically in AgRP neurons are used, hereafter called AgRP-GFP. […] Tumors were readily detected by bioluminescent imaging 10-14 days after inoculation (Udumula M P et al., 2021, Mol Metab., 53:101272; Liao J B et al., 2015, J Immunother Cancer, 3:16). Visible ascites (detected by abdominal swelling) developed at ~3 weeks following implantation (Roby K F et al., 2000, Carcinogenesis, 21:585-591). […] Bioluminescence signals of the tumor are recorded using the Xenogen IVIS system. Food intake is monitored manually on a daily basis and energy expenditure is measured using a computer-controlled indirect calorimetry system.
Additional studies test whether Bobcat339 alleviates OC-induced anorexia and hypermetabolism. […] Food intake are monitored daily and energy expenditure are determined once a week for three weeks before euthanasia. […]

The next assay has as its system Tet3 and Agrp. Briefly: Tet3 and Agrp expression in leptin-treated GT1-7 cells. It is filed as cell-based, mouse. The protocol:
Mouse GT1-7 hypothalamic neuronal cell line (Sigma-Aldrich, SCC116), human SH-SY5Y neuronal blastoma cell line (ATCC, CRL-2266), and embryonic mouse hypothalamus cell line N11 (mHypoE-N11) (Cedarlane, CLU107) were purchased and cultured according to the manufacturers' instructions. For siRNA transfection in a 24-well plate scale, cells were seeded at a density of 2×10^5 cells/well the day before transfection. To prepare siRNA transfection solution for each well of cells, 5 pmol of NT siRNA (non-targeting control siRNA, AM4636, Ambion), Tet3 siRNA (siRNA specifically targeting mouse Tet3, 4390815/s101483, Ambion), or TET3 siRNA (siRNA specifically targeting human TET3, 4392420/s47238, Ambion) (Cao et al., 2019, Oncogene, 38:5356-5366; Xu et al., 2020, Cell Rep., 30:1310-1318) were mixed with 25 μl of OPTI-MEM (Gibco, 31985-070) by gentle pipetting (Cao, T. et al., 2019, Oncogene, 38:5356-5366; Xu, Y. et al., 2020, Cell Reports, 30:1310-1318 e5). In parallel, 1.5 μl of Lipofectamine RNAiMAX (Invitrogen, 13778-150) was mixed with 25 μl of OPTI-MEM by gentle pipetting. Following 5 min of incubation at room temperature, the resulting 50 μl of transfection solution was added to one well of cells containing 1 ml culture media. […]

Take `Nc1nc(=O)n(-c2cccc(-c3ccccc3)c2)cc1Cl` [Bobcat339, 4-Amino-1-[1,1′-biphenyl]-3-yl-5-chloro-2(1H)-pyrimidinone]: the Lin28 expression result with Lin28 is reported as “decreased”. In addition, in the assay with OC-bearing mice, the OC progression result is given as “decreased OC progression”; the “cancer anorexia and hypermetabolism” value was “not only prevents cancer anorexia and hypermetabolism from developing but eliminates it after it is established”.

In the case of “leptin: adipose hormone; mouse leptin L3772-1MG or human leptin L4146-1MG, Sigma Aldrich”, in the assay on Tet3 and Agrp (leptin 1×10^−8 M vs. 1×10^−10 M), the Tet3 expression entry is recorded as “a positive effect on Tet3 expression; also recorded: upregulated TET3”. In addition, the “Agrp expression in response to increased leptin” value with Tet3 and Agrp (with TET3 knockdown) is listed as “no longer decreased in response to increased leptin”.

The record behind these values is patent US20260355199A1, “COMPOSITIONS AND METHODS FOR TREATING OR PREVENTING NONALCOHOLIC STEATOHEPATITIS (NASH), ANOREXIA, DEPRESSION, ENDOMETRIOSIS, AND OTHER DISEASES OR DISORDERS” (priority 2022, published 2026).
